According to ChEMBL document CHEMBL1122407, “Synthesis and biological activity of various 3'-azido and 3'-amino analogues of 5-substituted pyrimidine deoxyribonucleosides” (1983):
“And” between values parts separate entries of the source, which are not always exact repeats. Equal entries are not always repeated. The source made the active and inactive calls. The calls are words filed in the database; no cut-off is given here.

Key:
[1] = molecular target: Deoxycytidine kinase (Mus musculus) (UniProt P43346); assay: Inhibitory activity against deoxycytidine kinase from L1210 cells; type: cell-based; set-up: concentration or dose not given beside the values; scale not given: the % may be the effect or the level left
Deoxycytidine kinase (Mus musculus), sequence (P43346 whole entry, looked up): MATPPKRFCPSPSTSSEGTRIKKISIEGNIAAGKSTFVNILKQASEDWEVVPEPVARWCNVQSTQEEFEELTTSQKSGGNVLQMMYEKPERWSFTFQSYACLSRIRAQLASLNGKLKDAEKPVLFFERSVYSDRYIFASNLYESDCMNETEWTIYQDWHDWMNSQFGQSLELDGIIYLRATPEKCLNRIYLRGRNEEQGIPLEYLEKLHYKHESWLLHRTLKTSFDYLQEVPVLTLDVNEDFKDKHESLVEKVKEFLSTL

[2] = system: L1210; assay: In vitro inhibition against replication of L1210 murine cells; inactive; type: functional, cell-based; settings: Mus musculus
[3] = system: Sarcoma-180; assay: In vitro inhibition against replication of […] cells; inactive; type: functional, cell-based; settings: Mus musculus
[4] = molecular target: T1, Thymidine kinase, cytosolic (Mus musculus) (UniProt P04184); assay: Inhibitory activity against thymidine kinase (TK) from L1210 cells; type: cell-based; set-up: concentration or dose not given beside the values
T1 sequence (whole entry): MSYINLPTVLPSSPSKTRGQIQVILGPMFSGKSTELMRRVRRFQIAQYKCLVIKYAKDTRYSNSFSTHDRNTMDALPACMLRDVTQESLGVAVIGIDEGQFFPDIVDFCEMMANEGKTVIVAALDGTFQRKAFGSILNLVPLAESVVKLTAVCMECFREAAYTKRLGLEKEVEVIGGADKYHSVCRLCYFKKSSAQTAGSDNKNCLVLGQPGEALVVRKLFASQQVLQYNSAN

[5] = system: L1210; assay: In vitro inhibition against replication of L1210 murine cells; type: functional; settings: Mus musculus, read-out: ED50 (the source's name)
[6] = system: Sarcoma-180; assay: In vitro inhibition against replication of Sarcoma-80 cells; type: functional; settings: Mus musculus, read-out: ED50 (the source's name)

Row | Compound | Activity [1] | Activity [4] | EC50 [5] | EC50 [6] | ED50 [2] | ED50 [3]
1 | O=c1[nH]c(=O)n([C@H]2C[C@H](O)[C@@H](CO)O2)cc1I | 87% and 97% | – | – | – | – | –
2 | N[C@H]1C[C@H](n2ccc(=O)[nH]c2=O)O[C@@H]1CO | 97% and 94% | – | 18 µM | 50 µM | – | –
3 | Nc1nc(=O)n([C@H]2C[C@@H](N)[C@@H](CO)O2)cc1F | 82% and 73% | 81% and 70% | 10 µM | 1 µM | – | –
4 | [N-]=[N+]=N[C@H]1C[C@H](n2cc(F)c(=O)[nH]c2=O)O[C@@H]1CO | 94% and 89% | 78% and 71% | 20 µM | 40 µM | – | –
5 | O=c1ccn([C@H]2C[C@H](O)[C@@H](CO)O2)c(=O)[nH]1 | 88% and 92% | – | – | – | – | –
6 | Cc1cn([C@H]2C[C@@H](N=[N+]=[N-])[C@@H](CF)O2)c(=O)[nH]c1=O | 93% and 89% | 93% and 95% | – | – | inactive | inactive
7 | [N-]=[N+]=N[C@H]1C[C@H](n2cc(F)c(N)nc2=O)O[C@@H]1CO | 70% and 61% | 88% and 103% | 25 µM | – | – | –
8 | Cc1cn([C@H]2C[C@H](N=[N+]=[N-])[C@@H](CO)O2)c(=O)[nH]c1=O | 89% and 84% | – | – | – | – | –
9 | [N-]=[N+]=N[C@H]1C[C@H](n2cc(C(F)(F)F)c(=O)[nH]c2=O)O[C@@H]1CO | 91% and 85% | – | 400 µM | 100 µM | – | –

More lines, main results first:

Row | Activity [1] | Activity [4] | EC50 [5] | EC50 [6] | Compound | ED50 [2] | ED50 [3]
10 | 62% and 55% | 92% and 81% | – | – | Cc1cn([C@H]2C[C@H](N=[N+]=[N-])[C@@H](CO)O2)c(=O)nc1N | inactive | inactive
11 | 101% and 87% | 81% and 61% | 150 µM | 100 µM | N[C@@H]1C[C@H](n2cc(C(F)(F)F)c(=O)[nH]c2=O)O[C@@H]1CO | – | –
12 | 96% and 87% | 95% and 72% | – | – | Cc1cn([C@H]2C[C@H](N)[C@@H](CO)O2)c(=O)[nH]c1=O | – | –
13 | 86% and 78% | 85% and 72% | – | – | [N-]=[N+]=N[C@H]1C[C@H](n2ccc(N)nc2=O)O[C@@H]1CO | inactive | inactive
14 | 90% and 82% | 93% and 80% | 25 µM | 20 µM | Cc1cn([C@H]2C[C@@H](N)[C@@H](CO)O2)c(=O)nc1N | – | –
15 | 93% | 92% and 82% | 15 µM | 1 µM | N[C@@H]1C[C@H](n2cc(F)c(=O)[nH]c2=O)O[C@@H]1CO | – | –
16 | 89% and 85% | 77% and 84% | 0.7 µM | 4 µM | Nc1ccn([C@H]2C[C@H](N)[C@@H](CO)O2)c(=O)n1 | – | –
17 | 92% | – | – | – | [N-]=[N+]=N[C@H]1C[C@H](n2ccc(=O)[nH]c2=O)O[C@@H]1CO | inactive | inactive
18 | 91% and 88% | 89% and 83% | – | – | Cc1cn([C@H]2C[C@@H](N)[C@@H](CF)O2)c(=O)[nH]c1=O | inactive | inactive
19 | 87% and 91% | 95% and 71% | 400 µM | – | N[C@@H]1C[C@H](n2cc(I)c(=O)[nH]c2=O)O[C@@H]1CO | – | –
